# Experimental data taken from US20120058204A1, “USE OF OVER EXPRESSION OF CYSTATHIONINE GAMMA LYASE AS A PROGNOSTIC, DIAGNOSTIC AND THERAPEUTIC TARGET FOR CANCER” (NATIONAL CANCER CENTER RESEARCH INSTITUTE, priority 2010, published 2012).
# What was measured:
# Format in all cases: cell-based
# [1] = system: OVISE cell line; test: Drug and growth-inhibitor assay (Cell Titer-Glo cell viability), OVISE; conditions: for effect on cell growth: concentration 0.1 g/ml to […], alone
# Method: (§1) Cysplatin (CDDP, Randa, molecular weight, 300.5 Da) was purchased from Nippon Kayaku (Tokyo, Japan). Propargylglycine (PPG, molecular weight, 113.11 Da), a specific inhibitor of CTH, was purchased from Sigma-Aldrich. OVISE, OVTOKO, and OVCAR-3 were seeded into opaque-walled 96-well plates in a concentration of 1×10^4 cells/well on the day before adding the drugs. CDDP solution of various concentrations (0, 0.02, 0.1, 0.5, 2.5, and 12.5 µg/ml) was then added to the wells in duplicate. In the following, PPG dissolved in water ([…]) was added. 96 hours after addition of the drugs, cell viability was quantified using the Cell Titer-Glo Luminescent Cell Viability Assay (Promega, Madison, Wis.). Luminescence activity was measured with a GloMAx96 Microplate Luminometer (Promega).
# (§2) The protein expression of CTH was examined in 9 ovarian cancer cell lines by western blot analysis. Among all the ovarian cell lines, CTH expression was only observed in OVISE and OVTOKO (FIG. 5E). […] There was a positive correlation between protein expression of CTH and IC50 of CDDP in ovarian cancer cell lines (FIG. 5 F-H). The IC50s of propargylglycine, a specific inhibitor of CTH, were also analyzed in these cell lines. Propargylglycine at a concentration ranging from […] to 10 µg/ml had no effect on cell growth of these cell lines. Thus, combination of CDDP and propargylglycine (FIG. 5 I-K) was also examined.
# [2] = system: OVTOKO cell line; test: Drug and growth-inhibitor assay (Cell Titer-Glo cell viability), OVTOKO; conditions: for effect on cell growth: concentration 0.1 g/ml to […], alone
# Method: as §1, §2
# [3] = system: OVCAR3 cell line; test: Drug and growth-inhibitor assay (Cell Titer-Glo cell viability), OVCAR3; conditions: concentration 0.1 g/ml to […], alone
# Method: as §1
# as §2, with “Thus, combination of CDDP and propargylglycine (FIG. 5 I-K) was also examined.” left out
# [4] = […] propargylglycine in culture medium, versus medium without PPG
SMILES,"change of IC50 of CDDP in combination with propargylglycine [1, 4]","change of IC50 of CDDP in combination with propargylglycine [2, 4]",effect on cell growth [1],effect on cell growth ([1]; listed as PPG),effect on cell growth [2],effect on cell growth ([2]; listed as PPG),effect on cell growth [3],effect on cell growth ([3]; listed as PPG)
"[NH2][Pt]([NH2])([Cl])[Cl] [CDDP, Cysplatin]",significantly decreased,significantly decreased,–,–,–,–,–,–
C#CCC(N)C(=O)O (centres unmarked) [Propargylglycine],–,–,no effect,did not affect cell growth,no effect,did not affect cell growth,no effect,did not affect cell growth
